The values that follow come from publication PMC8694002 (RSC Advances, 2021).

Where two headings read alike, the source gives them in different places.

As usually defined, the IC50 is the concentration at which inhibition is half-maximal.

One assay has as its target T1, TCPTP (13–358) (Homo sapiens, UniProt P17706).
T1 sequence (P17706 13-358): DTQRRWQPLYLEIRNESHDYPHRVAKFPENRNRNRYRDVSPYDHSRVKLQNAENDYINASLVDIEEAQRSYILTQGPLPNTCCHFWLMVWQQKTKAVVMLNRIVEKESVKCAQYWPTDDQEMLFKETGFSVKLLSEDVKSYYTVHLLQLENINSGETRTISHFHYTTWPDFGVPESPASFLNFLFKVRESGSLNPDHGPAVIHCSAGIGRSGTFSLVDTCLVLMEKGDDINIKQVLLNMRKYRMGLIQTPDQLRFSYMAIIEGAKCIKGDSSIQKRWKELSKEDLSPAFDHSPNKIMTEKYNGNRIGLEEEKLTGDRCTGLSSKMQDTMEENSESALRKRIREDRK
The assay can be described thus: TCPTP inhibition assay with DiFMUP as substrate. The assay is classed as biochemical. Conditions: read-out: IC50 TCPTP; means ± SD of three replications.

A further assay has as its target T2, PTP1B (1–321) (Homo sapiens, UniProt P18031).
T2 sequence (P18031 1-321): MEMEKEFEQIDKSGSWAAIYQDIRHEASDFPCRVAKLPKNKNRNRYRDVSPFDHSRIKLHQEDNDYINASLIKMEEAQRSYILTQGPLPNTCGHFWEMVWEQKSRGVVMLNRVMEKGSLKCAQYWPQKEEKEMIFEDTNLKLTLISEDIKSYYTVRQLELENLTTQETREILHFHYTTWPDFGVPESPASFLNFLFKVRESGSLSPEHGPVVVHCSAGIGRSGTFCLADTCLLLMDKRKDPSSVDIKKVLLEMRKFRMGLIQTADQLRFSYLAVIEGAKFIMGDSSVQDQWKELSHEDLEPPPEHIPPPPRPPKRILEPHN
Description: PTP1B inhibition assay with DiFMUP as substrate.

`O=S(=O)(O)c1ccc2cc(N=Nc3cc(S(=O)(=O)O)c4cccnc4c3O)ccc2c1` [NSC-87877]: the half-maximal inhibitory concentration (IC50) was 71.9 ± 3.87 µM at TCPTP (13–358); 26.2 ± 8.58 µM against PTP1B (1–321) (PTP1B, Table 3, means ± SD of three replications); 26.2 ± 8.58 µM on PTP1B (1–321) (read-out: IC50 PTP1B, means ± SD of three replications).
